Measured values as given in ChEMBL document CHEMBL1781893, “New potent human acetylcholinesterase inhibitors in the tetracyclic triterpene series with inhibitory potency on amyloid β aggregation” (Eur J Med Chem, 2011).

How the values were obtained:
Cholinesterase = Cholinesterase (Homo sapiens, UniProt P06276)
Description: Inhibition of recombinant human serum BChE using butyrylthiocholine iodide as substrate by spectroscopic Ellmans method

Acetylcholinesterase [1] = molecular target: Acetylcholinesterase (Homo sapiens, UniProt P22303)
Description: Inhibition of recombinant human AChE using acetylthiocholine iodide as substrate by spectroscopic Ellmans method

Acetylcholinesterase [2] = molecular target: Acetylcholinesterase (Electrophorus electricus, UniProt O42275)
Chain of Acetylcholinesterase (Electrophorus electricus, UniProt O42275) (O42275 whole entry): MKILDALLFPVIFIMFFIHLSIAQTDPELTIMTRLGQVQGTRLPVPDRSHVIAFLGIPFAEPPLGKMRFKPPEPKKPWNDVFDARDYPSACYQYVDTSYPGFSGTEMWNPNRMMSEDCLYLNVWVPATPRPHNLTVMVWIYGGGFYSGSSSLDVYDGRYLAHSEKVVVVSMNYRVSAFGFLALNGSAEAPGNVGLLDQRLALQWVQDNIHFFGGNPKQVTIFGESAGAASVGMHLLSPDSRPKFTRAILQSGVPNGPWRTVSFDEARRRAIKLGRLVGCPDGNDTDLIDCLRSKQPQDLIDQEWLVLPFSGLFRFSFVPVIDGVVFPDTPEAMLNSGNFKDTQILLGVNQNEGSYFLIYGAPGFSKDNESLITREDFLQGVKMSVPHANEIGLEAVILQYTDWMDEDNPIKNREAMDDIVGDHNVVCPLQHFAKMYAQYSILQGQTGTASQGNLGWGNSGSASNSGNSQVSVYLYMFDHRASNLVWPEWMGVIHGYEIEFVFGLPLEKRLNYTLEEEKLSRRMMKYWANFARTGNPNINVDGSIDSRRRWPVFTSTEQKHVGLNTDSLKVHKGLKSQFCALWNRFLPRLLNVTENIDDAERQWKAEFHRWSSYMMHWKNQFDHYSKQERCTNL
Description: Inhibition of Electrophorus electricus AChE using acetylthiocholine iodide as substrate by spectroscopic Ellmans method

Chain of Cholinesterase (P06276 whole entry): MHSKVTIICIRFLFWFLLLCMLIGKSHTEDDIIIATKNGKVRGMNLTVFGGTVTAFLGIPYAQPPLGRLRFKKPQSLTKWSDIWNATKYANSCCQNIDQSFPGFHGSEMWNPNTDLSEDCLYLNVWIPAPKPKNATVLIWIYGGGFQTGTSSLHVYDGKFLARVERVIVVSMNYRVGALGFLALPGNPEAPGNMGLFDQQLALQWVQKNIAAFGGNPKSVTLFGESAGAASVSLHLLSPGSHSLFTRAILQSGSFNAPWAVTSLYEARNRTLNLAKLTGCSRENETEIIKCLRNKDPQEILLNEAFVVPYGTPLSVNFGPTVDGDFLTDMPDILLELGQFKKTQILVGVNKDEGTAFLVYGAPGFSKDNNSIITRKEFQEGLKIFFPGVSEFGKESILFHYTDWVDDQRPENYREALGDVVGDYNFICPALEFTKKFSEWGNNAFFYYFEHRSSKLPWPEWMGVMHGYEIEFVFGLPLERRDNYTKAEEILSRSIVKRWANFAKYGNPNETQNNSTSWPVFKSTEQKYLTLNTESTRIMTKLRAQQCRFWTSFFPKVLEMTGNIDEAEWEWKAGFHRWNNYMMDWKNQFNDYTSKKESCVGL
Chain of Acetylcholinesterase (Homo sapiens, UniProt P22303) (P22303 whole entry): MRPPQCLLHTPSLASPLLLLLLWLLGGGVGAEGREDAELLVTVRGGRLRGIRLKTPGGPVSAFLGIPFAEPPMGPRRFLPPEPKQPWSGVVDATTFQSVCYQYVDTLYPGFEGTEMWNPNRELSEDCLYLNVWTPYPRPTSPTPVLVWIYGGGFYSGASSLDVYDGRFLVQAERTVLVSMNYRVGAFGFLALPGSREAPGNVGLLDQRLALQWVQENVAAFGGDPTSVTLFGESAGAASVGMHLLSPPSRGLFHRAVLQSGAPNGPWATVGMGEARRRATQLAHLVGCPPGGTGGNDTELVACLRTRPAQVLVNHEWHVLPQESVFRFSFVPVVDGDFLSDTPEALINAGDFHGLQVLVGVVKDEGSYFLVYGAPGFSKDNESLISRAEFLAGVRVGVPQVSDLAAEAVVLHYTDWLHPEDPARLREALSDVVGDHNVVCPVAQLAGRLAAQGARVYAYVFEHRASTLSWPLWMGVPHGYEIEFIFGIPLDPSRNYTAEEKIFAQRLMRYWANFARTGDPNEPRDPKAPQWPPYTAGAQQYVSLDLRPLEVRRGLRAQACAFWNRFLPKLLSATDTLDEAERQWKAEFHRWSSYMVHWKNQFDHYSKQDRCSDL

CC(C)C1=N[C@H]2CC[C@]34C[C@]35C(=O)C[C@]3(C)[C@@H]([C@H](C)N(C)CCCN6C(=O)c7ccccc7C6=O)[C@H](O)C[C@@]3(C)[C@@H]5CC[C@H]4[C@]2(C)CS1
IC50 (Cholinesterase): 224 nM
IC50 (Acetylcholinesterase [1]): 14 nM
IC50 (Acetylcholinesterase [2]): 14 nM

CC(C)C1=N[C@H]2CC[C@]34C[C@]35C(=O)C[C@]3(C)[C@@H]([C@H](C)N(C)Cc6ccccc6C(F)(F)F)[C@H](O)C[C@@]3(C)[C@@H]5CC[C@H]4[C@]2(C)CS1
IC50 (Cholinesterase): > 10000 nM
IC50 (Acetylcholinesterase [1]): 11 nM
IC50 (Acetylcholinesterase [2]): 24 nM

CC(C)C1=N[C@H]2CC[C@]34C[C@]35C(=O)C[C@]3(C)[C@@H]([C@H](C)N(C)C(=O)OC(C)(C)C)[C@H](O)C[C@@]3(C)[C@@H]5CC[C@H]4[C@]2(C)CS1
IC50 (Cholinesterase): > 10000 nM
IC50 (Acetylcholinesterase [1]): 159 nM
IC50 (Acetylcholinesterase [2]): 186 nM

CC(C)C1=N[C@H]2CC[C@]34C[C@]35C(=O)C[C@]3(C)[C@@H]([C@H](C)N(C)Cc6ccccc6)[C@H](O)C[C@@]3(C)[C@@H]5CC[C@H]4[C@]2(C)CS1
IC50 (Cholinesterase): 554 nM
IC50 (Acetylcholinesterase [1]): 7 nM
IC50 (Acetylcholinesterase [2]): 13 nM

CC(C)C1=N[C@H]2CC[C@]34C[C@]35C(=O)C[C@]3(C)[C@@H]([C@H](C)N(C)Cc6cccc(C(F)(F)F)c6)[C@H](O)C[C@@]3(C)[C@@H]5CC[C@H]4[C@]2(C)CS1
IC50 (Cholinesterase): > 10000 nM
IC50 (Acetylcholinesterase [1]): 3 nM
IC50 (Acetylcholinesterase [2]): 9 nM

CC(C)C1=N[C@H]2CC[C@]34C[C@]35C(=O)C[C@]3(C)[C@@H]([C@H](C)N(C)CCCc6ccccc6)[C@H](O)C[C@@]3(C)[C@@H]5CC[C@H]4[C@]2(C)CS1
IC50 (Cholinesterase): 1430 nM
IC50 (Acetylcholinesterase [1]): 76 nM
IC50 (Acetylcholinesterase [2]): 79 nM

COc1ccc(CN(C)[C@@H](C)[C@H]2[C@H](O)C[C@@]3(C)[C@@H]4CC[C@H]5[C@]6(C)CSC(C(C)C)=N[C@H]6CC[C@@]56C[C@@]46C(=O)C[C@]23C)cc1
IC50 (Cholinesterase): 217 nM
IC50 (Acetylcholinesterase [1]): 9 nM
IC50 (Acetylcholinesterase [2]): 18 nM

CC(C)C1=N[C@H]2CC[C@]34C[C@]35C(=O)C[C@]3(C)[C@@H]([C@H](C)N(C)C)[C@H](O)C[C@@]3(C)[C@@H]5CC[C@H]4[C@]2(C)C=C1
IC50 (Cholinesterase): 679 nM
IC50 (Acetylcholinesterase [1]): 25 nM
IC50 (Acetylcholinesterase [2]): 16 nM

COc1ccccc1CN(C)[C@@H](C)[C@H]1[C@H](O)C[C@@]2(C)[C@@H]3CC[C@H]4[C@]5(C)CSC(C(C)C)=N[C@H]5CC[C@@]45C[C@@]35C(=O)C[C@]12C
IC50 (Cholinesterase): 333 nM
IC50 (Acetylcholinesterase [1]): 6 nM
IC50 (Acetylcholinesterase [2]): 12 nM

CC(C)C1=N[C@H]2CC[C@]34C[C@]35C(=O)C[C@]3(C)[C@@H]([C@H](C)N(C)C)[C@H](O)C[C@@]3(C)[C@@H]5CC[C@H]4[C@]2(C)N1
IC50 (Cholinesterase): 7220 nM
IC50 (Acetylcholinesterase [1]): > 10000 nM
IC50 (Acetylcholinesterase [2]): > 10000 nM

CCN1C[C@]2(C)[C@H](CC=C3C[C@H]4C(=O)C[C@]5(C)[C@@H]([C@H](C)N(C)C)[C@H](O)C[C@@]5(C)[C@@H]4CC[C@H]32)N=C1C(C)C
IC50 (Cholinesterase): 3330 nM
IC50 (Acetylcholinesterase [1]): > 10000 nM
IC50 (Acetylcholinesterase [2]): > 10000 nM

CC(C)C1=N[C@H]2CC[C@]34C[C@]35C(=O)C[C@]3(C)[C@@H]([C@H](C)N(C)CCc6ccccc6)[C@H](O)C[C@@]3(C)[C@@H]5CC[C@H]4[C@]2(C)CS1
IC50 (Cholinesterase): 501 nM
IC50 (Acetylcholinesterase [1]): 20 nM
IC50 (Acetylcholinesterase [2]): 14 nM

C[C@@H]([C@H]1[C@H](O)C[C@@]2(C)[C@@H]3CC[C@H]4[C@]5(C)COC(C(F)(C(F)(F)F)C(F)(F)F)=N[C@H]5CC[C@@]45C[C@@]35C(=O)C[C@]12C)N(C)C
IC50 (Cholinesterase): > 10000 nM
IC50 (Acetylcholinesterase [1]): 3000 nM
IC50 (Acetylcholinesterase [2]): 1700 nM

C[C@@H]([C@H]1[C@H](O)C[C@@]2(C)[C@@H]3CC[C@H]4[C@]5(C)COC(C(C)(C)F)=N[C@H]5CC[C@@]45C[C@@]35C(=O)C[C@]12C)N(C)C
IC50 (Cholinesterase): > 10000 nM
IC50 (Acetylcholinesterase [1]): 744 nM
IC50 (Acetylcholinesterase [2]): 336 nM

CC(C)C1=N[C@H]2CC[C@]34C[C@]35C(=O)C[C@]3(C)[C@@H]([C@H](C)N(C)Cc6ccc(C(F)(F)F)cc6)[C@H](O)C[C@@]3(C)[C@@H]5CC[C@H]4[C@]2(C)CS1
IC50 (Cholinesterase): > 10000 nM
IC50 (Acetylcholinesterase [1]): 3 nM
IC50 (Acetylcholinesterase [2]): 7 nM

CC(=O)N(C)[C@@H](C)[C@H]1[C@H](O)C[C@@]2(C)[C@@H]3CC[C@H]4[C@]5(C)CSC(C(C)C)=N[C@H]5CC[C@@]45C[C@@]35C(=O)C[C@]12C
IC50 (Cholinesterase): > 10000 nM
IC50 (Acetylcholinesterase [1]): 298 nM
IC50 (Acetylcholinesterase [2]): 139 nM

CN[C@@H](C)[C@H]1[C@H](O)C[C@@]2(C)[C@@H]3CC[C@H]4[C@]5(C)CSC(C(C)C)=N[C@H]5CC[C@@]45C[C@@]35C(=O)C[C@]12C
IC50 (Cholinesterase): 1340 nM
IC50 (Acetylcholinesterase [1]): 76 nM
IC50 (Acetylcholinesterase [2]): 45 nM

COc1cccc(CN(C)[C@@H](C)[C@H]2[C@H](O)C[C@@]3(C)[C@@H]4CC[C@H]5[C@]6(C)CSC(C(C)C)=N[C@H]6CC[C@@]56C[C@@]46C(=O)C[C@]23C)c1
IC50 (Cholinesterase): 477 nM
IC50 (Acetylcholinesterase [1]): 3 nM
IC50 (Acetylcholinesterase [2]): 6 nM

CC(C)C1=N[C@H]2CC[C@]34C[C@]35C(=O)C[C@]3(C)[C@@H]([C@H](C)N(C)CCN6C(=O)c7ccccc7C6=O)[C@H](O)C[C@@]3(C)[C@@H]5CC[C@H]4[C@]2(C)CS1
IC50 (Cholinesterase): 653 nM
IC50 (Acetylcholinesterase [1]): 70 nM
IC50 (Acetylcholinesterase [2]): 24 nM

CC(C)C1=N[C@H]2CC[C@]34C[C@]35C(=O)C[C@]3(C)[C@@H]([C@H](C)N(C)C)[C@H](O)C[C@@]3(C)[C@@H]5CC[C@H]4[C@]2(C)CN1C
IC50 (Cholinesterase): 2950 nM
IC50 (Acetylcholinesterase [1]): > 10000 nM
IC50 (Acetylcholinesterase [2]): > 10000 nM

CC(C)C1=N[C@H]2CC[C@]34C[C@]35C(=O)C[C@]3(C)[C@@H]([C@H](C)N(C)C(=O)c6ccccc6)[C@H](O)C[C@@]3(C)[C@@H]5CC[C@H]4[C@]2(C)CS1
IC50 (Cholinesterase): > 1000 nM
IC50 (Acetylcholinesterase [1]): 43 nM
IC50 (Acetylcholinesterase [2]): 37 nM

C[C@@H]([C@H]1[C@H](O)C[C@@]2(C)[C@@H]3CC[C@H]4[C@]5(C)COC(C(F)(F)F)=N[C@H]5CC[C@@]45C[C@@]35C(=O)C[C@]12C)N(C)C
IC50 (Cholinesterase): > 10000 nM
IC50 (Acetylcholinesterase [1]): > 10000 nM
IC50 (Acetylcholinesterase [2]): > 10000 nM

CC(C)C1=N[C@H]2CC[C@]34C[C@]35C(=O)C[C@]3(C)[C@@H]([C@H](C)N(C)C)[C@H](O)C[C@@]3(C)[C@@H]5CC[C@H]4[C@]2(C)CC1
IC50 (Cholinesterase): > 10000 nM
IC50 (Acetylcholinesterase [1]): 618 nM
IC50 (Acetylcholinesterase [2]): 294 nM

CC(C)C1=N[C@H]2CC[C@]34C[C@]35C(=O)C[C@]3(C)[C@@H]([C@H](C)N(C)C)[C@H](O)C[C@@]3(C)[C@@H]5CC[C@H]4[C@]2(C)CN1
IC50 (Acetylcholinesterase [2]): > 10000 nM

CC(C)C1=N[C@H]2CC[C@]34C[C@]35C(=O)C[C@]3(C)[C@@H]([C@H](C)N(C)C)[C@H](O)C[C@@]3(C)[C@@H]5CC[C@H]4[C@]2(C)CS1
IC50 (Cholinesterase): 5370 nM
IC50 (Acetylcholinesterase [1]): 60 nM
IC50 (Acetylcholinesterase [2]): 38 nM
